No end group written: not given here. HA = not defined here
Tests used:
MDA-MB-468 cells = assay: MTT cell viability/growth inhibition, MDA-MB-468; format: cell-based, human; settings: for growth inhibition of EGFP-CARP-1 / EGFP-H2AX (1–35)-expressing cells: MDA-MB-468 sublines vs EGFP-expressing counterparts; for cell viability: 10 μM, MDA-MB-468, MTT, mean of three independent experiments
Experimental: (§1) Routine maintenance and culture of MDA-MB-468 (lacking estrogen receptor; ER and having mutant p53) human triple-negative breast cancer (TNBC) cells, human cervical cancer HeLa, human kidney cancer UOK 262, non-small-cell lung cancer H1975, and HCC827 cells was carried out essentially as described previously. Generation and characterization of MDA-MB-468 cells expressing reduced CARP-1 was described previously. The stable sublines were generated by transfecting the MDA-MB-468 and Hela cells with the pcDNA3 vector, pcDNA3-CARP-1 wild-type (WT)-myc-His clone 6.1.2, pcDNA3-CARP-1(Δ600–650)-myc-His, pcDNA3-EGFP, pcDNA3-EGFP-H2AX (1–35), or pcDNA3-EGFP-CARP-1 (636–650) plasmids, followed by selection in the presence of 800 μg/mL neomycin using described methods. The cell lysates from wild-type, untransfected cells, neomycin-resistant pools, or individual sublines were then subjected to MTT-based viability, confocal, immunoprecipitation (IP), and Western blot (WB) analyses as below.
(§2) The cell growth inhibition was assessed using an MTT assay following the established protocols described by us previously.
(§3) Here, we utilized human TNBC MDA-MB-468 and human cervical cancer HeLa cells to conduct an MTT-based dose-response analysis using Adriamycin and CFM compounds. […] Since Adriamycin, CFM-4, and CFM-4.16 have molecular masses of 543.3, 404.9, and 440.3, respectively, we chose to use an equimolar dose of each compound in the MTT assays. […] Prior reports established that phosphorylation of H2AX at serine 139 (γ-H2AX) is involved in DNA damage repair and apoptotic signaling by ATM/ATR and JNKs, respectively. Next, the MDA-MB-468, HeLa, and the kidney cancer UOK 262 cells were treated with a 10 μM dose of the CFM-4.16 or Adriamycin for various time periods. The cell lysates from the control, untreated, and treated cells were analyzed by WB for expression of CARP-1, phospho-JNK1/2, phospho-H2AX, and poly ADP ribose polymerase (PARP) proteins. […] The H2AX activation is also indicative of DNA damage and involves pro-apoptotic JNKs. Our data in Figure 1C and Figure S1B,C (Supplementary Materials) also show activation of JNKs; however, a robust JNK activation is co-incident with H2AX phosphorylation following treatments with Adriamycin or CFM-4.16.
Figure 7 Disruption of H2AX interaction with CARP-1 results in enhanced viabilities of CFM-4-, CFM-4.16-, or Adriamycin-treated cells in part due to reduced apoptosis. (A,C,D) Indicated MDA-MB-468 cell lines were treated with DMSO (Control), or with the noted dose and time of Adriamycin, CFM-4, or CFM-4.16 compounds. Determination of viable/live cells was carried out by MTT assay as described in Section 2. (B,E,F) Cell lysates derived from vehicle DMSO (Control), or CFM-4-, CFM-4.16-, or Adriamycin-treated cells were added to the wells that had immobilized fluorogenic substrates of noted caspases. The fluorescence released from the activated caspase-dependent cleavage of respective substrate was detected by a plate reader at the excitation and emission wavelengths of 380 nm and 460 nm, respectively, as detailed in Section 2. The columns in bar charts in panels A, C, D and B, […] represent means of three and two independent experiments, respectively; bars, SE. For panels C and D, * p < 0.05, **p < 0.01 and *** p ≤ 0.001 relative to the respective EGFP vector subline. For panels E and F, *** p ≤ 0.05 relative to the respective EGFP vector subline.
Figure 8 Ectopic expression of TAT-CARP-1 (636–650) peptide results in enhanced viabilities of Adriamycin-treated cells. MDA-MB-468 (A) or HeLa (B) cells were pre-incubated with 300 μg/mL indicated peptides for 72 h, followed by treatments with the noted dose and time of Adriamycin. Determination of viable/live cells was carried out using an MTT assay as described in Section 2. […]

HeLa cells = assay: MTT cell viability/growth inhibition, HeLa; format: cell-based, human; settings: for growth inhibition of EGFP-CARP-1 / EGFP-H2AX (1–35)-expressing cells: HeLa sublines vs EGFP-expressing counterparts; for cell viability: 10 μM, HeLa, mean of three independent experiments
Experimental: as §1, §2, §3
Figure 8 Ectopic expression of TAT-CARP-1 (636–650) peptide results in enhanced viabilities of Adriamycin-treated cells. MDA-MB-468 (A) or HeLa (B) cells were pre-incubated with 300 μg/mL indicated peptides for 72 h, followed by treatments with the noted dose and time of Adriamycin. Determination of viable/live cells was carried out using an MTT assay as described in Section 2. The bar charts in panels A and B represent means of three and two independent experiments, respectively; bars, SE. (C) Indicated cells were either pre-incubated with 6 μg/mL indicated peptides for 72 h or not (Control), followed by treatments with Adriamycin as noted. Cells were then processed for immunofluorescence staining for TAT-CARP-1 peptide (red), γH2AX (green), and DAPI (blue) as detailed in Section 2 and Figure S3 (Supplementary Materials). Insets in C show enlarged areas of respective photomicrographs to indicate presence of TAT-CARP-1 peptide and γH2AX in respective columns. The insets in the top and middle rows of the merge column show co-localization of TAT-CARP-1 peptide, and γH2AX (magnification: 250×).
Figure S7. Disruption of H2AX interaction with CARP-1 results in enhanced viabilities of CFM-4, CFM-4.16, or Adriamycin-treated cells in part due to reduced γH2AX and apoptosis. (A,B,C) Indicated HeLa cell lines were treated with DMSO (Control), noted dose and time of Adriamycin, CFM-4, or CFM-4.16 compounds. Determination of viable/live cells was carried out by MTT assay as in methods. The columns in bar charts in panels A, B, C represent means of three independent […]
experiments; bars, SE. […]

## EGFP-H2AX (1–35): EGFP-tagged fusion protein stably expressed in MDA-MB-468 and HeLa sublines (MSGRGKTGGKARAKAKSRSSRAGLQFPVGRVHRLL; also: EGFP fusion, end not given here; UniProt P16104 1-35, looked up, fragment)
MDA-MB-468 cells; MTT, mean of three experiments
  growth inhibition of EGFP-CARP-1 / EGFP-H2AX (1–35)-expressing cells: resistant to inhibition by CFM-4.16 or ADR
HeLa cells; mean of three experiments
  growth inhibition of EGFP-CARP-1 / EGFP-H2AX (1–35)-expressing cells: resistant to inhibition by CFM-4.16 or ADR

## O=C1N(Cc2ccccc2Cl)c2ccccc2C12NN=C(c1cccc(Cl)c1)S2 (stereo not drawn) [CFM-4.16]
MDA-MB-468 cells
  cell viability: inhibited viabilities of both the cell lines in a time-dependent manner
MDA-MB-468 cells; MTT, mean of three experiments
  growth inhibition of EGFP-CARP-1 / EGFP-H2AX (1–35)-expressing cells: resistant to inhibition by CFM-4.16 or ADR
HeLa cells
  cell viability: inhibited viabilities of both the cell lines in a time-dependent manner
HeLa cells; mean of three experiments
  growth inhibition of EGFP-CARP-1 / EGFP-H2AX (1–35)-expressing cells: resistant to inhibition by CFM-4.16 or ADR

## His-TAT-HA-CARP-1 (636–650): His-TAT-HA-tagged CARP-1 (636–650) peptide, >95% purity, commercially synthesized ({His-TAT-HA}-PKTMKVNDLRKELES; reading uncertain; UniProt Q8IX12 636-650, looked up, fragment)
MDA-MB-468 cells; MDA-MB-468 pre-incubated with 300 μg/mL peptide, 72 h, then Adriamycin, vs EGFP, MTT, mean of three experiments
  viability of Adriamycin-treated cells: moderate, statistically significant increase in viabilities
MDA-MB-468 cells; cancer cells, abstract
  abrogation of Adriamycin-induced growth inhibition: moderate, statistically significant abrogation of Adriamycin-induced growth inhibition
HeLa cells; HeLa pre-incubated with 300 μg/mL peptide, 72 h, then Adriamycin, vs EGFP, mean of two experiments
  viability of Adriamycin-treated cells: moderate, statistically significant increase in viabilities

## EGFP-CARP-1 (636–650): EGFP-tagged fusion protein stably expressed in MDA-MB-468 and HeLa sublines (PKTMKVNDLRKELES; also: EGFP fusion kept, end not given here)
MDA-MB-468 cells; MTT, mean of three experiments
  growth inhibition of EGFP-CARP-1 / EGFP-H2AX (1–35)-expressing cells: resistant to inhibition by CFM-4.16 or ADR
HeLa cells; mean of three experiments
  growth inhibition of EGFP-CARP-1 / EGFP-H2AX (1–35)-expressing cells: resistant to inhibition by CFM-4.16 or ADR

## COc1cccc2c1C(=O)c1c(O)c3c(c(O)c1C2=O)C[C@@](O)(C(=O)CO)C[C@@H]3O[C@H]1C[C@H](N)[C@H](O)[C@H](C)O1 [Adriamycin, doxorubicin, reference compound]
MDA-MB-468 cells; 10 μM dose, MDA-MB-468, MTT dose-response, Figure S1A
  cell-growth inhibition: robust cell-growth inhibition
MDA-MB-468 cells
  cell viability: inhibited viabilities of both the cell lines in a time-dependent manner
MDA-MB-468 cells; MDA-MB-468 CARP-1 (Δ600–650) vs WT CARP-1-expressing counterparts, MTT, mean of three experiments
  growth inhibition of CARP-1 (Δ600–650)-expressing cells: resistant to inhibition by CFM-4 or ADR
MDA-MB-468 cells; MTT, mean of three experiments
  growth inhibition of EGFP-CARP-1 / EGFP-H2AX (1–35)-expressing cells: resistant to inhibition by CFM-4.16 or ADR
HeLa cells
  cell viability: inhibited viabilities of both the cell lines in a time-dependent manner
HeLa cells; HeLa CARP-1 (Δ600–650) vs WT CARP-1-expressing counterparts, mean of three experiments
  growth inhibition of CARP-1 (Δ600–650)-expressing cells: resistant to inhibition by CFM-4 or ADR
HeLa cells; mean of three experiments
  growth inhibition of EGFP-CARP-1 / EGFP-H2AX (1–35)-expressing cells: resistant to inhibition by CFM-4.16 or ADR
